{"source": "paper PMC11233931", "about": "“Remodeling tumor‐associated macrophage for anti‐cancer effects by rational design of irreversible inhibition of mitogen‐activated protein kinase‐activated protein kinase 2” (MedComm, 2024)", "test_in_all_cases": "Eurofins kinase selectivity profile against 380 other human recombinant kinases (Table S2)", "type_in_all_cases": "biochemical", "key": {"[1]": {"biological_target": "T1, 380 human recombinant protein kinases (Homo sapiens, UniProt Q96PN8)", "T1 construct": "purchased Eurofins (Celle Lévescault)", "T1 sequence (Q96PN8 1-268)": "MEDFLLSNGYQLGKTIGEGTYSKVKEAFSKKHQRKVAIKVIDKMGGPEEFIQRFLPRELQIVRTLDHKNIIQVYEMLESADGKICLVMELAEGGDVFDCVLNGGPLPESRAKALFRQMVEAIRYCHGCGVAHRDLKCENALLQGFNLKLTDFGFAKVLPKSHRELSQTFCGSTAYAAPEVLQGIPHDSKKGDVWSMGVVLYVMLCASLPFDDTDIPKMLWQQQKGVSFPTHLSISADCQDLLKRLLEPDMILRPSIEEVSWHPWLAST", "conditions": "TSSK3(h), read-out: Inhibition rate (%)", "in_short": "(§1)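 Commercial selectivity screen of the test compound against a panel of 380 human recombinant protein kinases, run by an outside contractor at several compound concentrations to check whether its potency was specific for MK2.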"}, "[2]": {"biological_target": "T2, 380 human recombinant protein kinases (Homo sapiens, UniProt P06213)", "T2 construct": "purchased Eurofins (Celle Lévescault)", "T2 sequence (P06213 28-1382)": "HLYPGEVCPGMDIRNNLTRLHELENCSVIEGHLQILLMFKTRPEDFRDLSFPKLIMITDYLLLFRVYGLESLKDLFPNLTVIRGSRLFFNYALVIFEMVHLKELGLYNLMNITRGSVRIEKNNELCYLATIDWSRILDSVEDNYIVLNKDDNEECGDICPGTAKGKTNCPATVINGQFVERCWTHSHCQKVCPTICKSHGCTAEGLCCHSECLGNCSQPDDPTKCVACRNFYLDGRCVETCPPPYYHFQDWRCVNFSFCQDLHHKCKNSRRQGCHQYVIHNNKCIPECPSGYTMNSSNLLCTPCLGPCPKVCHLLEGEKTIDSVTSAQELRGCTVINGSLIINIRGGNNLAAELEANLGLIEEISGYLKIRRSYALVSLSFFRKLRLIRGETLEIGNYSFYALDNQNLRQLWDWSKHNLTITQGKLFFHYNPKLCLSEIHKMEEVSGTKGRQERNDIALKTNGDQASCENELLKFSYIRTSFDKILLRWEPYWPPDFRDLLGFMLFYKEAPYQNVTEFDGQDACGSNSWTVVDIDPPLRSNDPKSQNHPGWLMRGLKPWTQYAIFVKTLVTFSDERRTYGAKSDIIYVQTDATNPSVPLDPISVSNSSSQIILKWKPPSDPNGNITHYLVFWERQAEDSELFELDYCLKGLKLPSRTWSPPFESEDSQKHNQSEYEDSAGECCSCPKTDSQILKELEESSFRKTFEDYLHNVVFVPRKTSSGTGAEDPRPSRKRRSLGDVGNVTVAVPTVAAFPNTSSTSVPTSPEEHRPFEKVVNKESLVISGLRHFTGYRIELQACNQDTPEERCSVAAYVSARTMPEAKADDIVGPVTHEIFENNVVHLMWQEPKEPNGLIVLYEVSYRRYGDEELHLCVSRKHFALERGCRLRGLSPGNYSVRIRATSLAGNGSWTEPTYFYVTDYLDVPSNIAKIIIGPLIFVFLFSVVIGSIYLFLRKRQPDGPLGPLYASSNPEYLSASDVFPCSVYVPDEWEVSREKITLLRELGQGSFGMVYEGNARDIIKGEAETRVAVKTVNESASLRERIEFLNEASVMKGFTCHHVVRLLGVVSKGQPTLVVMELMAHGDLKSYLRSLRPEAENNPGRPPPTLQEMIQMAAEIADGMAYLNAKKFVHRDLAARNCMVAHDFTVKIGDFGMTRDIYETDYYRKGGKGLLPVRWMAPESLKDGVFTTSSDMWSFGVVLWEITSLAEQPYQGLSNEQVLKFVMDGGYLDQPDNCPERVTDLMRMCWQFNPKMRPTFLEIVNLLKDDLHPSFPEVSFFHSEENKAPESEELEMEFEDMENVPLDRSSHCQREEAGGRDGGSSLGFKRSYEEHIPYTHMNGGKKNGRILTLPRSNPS", "conditions": "IR(h), read-out: Inhibition rate", "in_short": "as §1"}, "[3]": {"biological_target": "T3, 380 human recombinant protein kinases (Homo sapiens, UniProt Q05655)", "T3 construct": "purchased Eurofins (Celle Lévescault)", "T3 sequence (Q05655 whole entry)": "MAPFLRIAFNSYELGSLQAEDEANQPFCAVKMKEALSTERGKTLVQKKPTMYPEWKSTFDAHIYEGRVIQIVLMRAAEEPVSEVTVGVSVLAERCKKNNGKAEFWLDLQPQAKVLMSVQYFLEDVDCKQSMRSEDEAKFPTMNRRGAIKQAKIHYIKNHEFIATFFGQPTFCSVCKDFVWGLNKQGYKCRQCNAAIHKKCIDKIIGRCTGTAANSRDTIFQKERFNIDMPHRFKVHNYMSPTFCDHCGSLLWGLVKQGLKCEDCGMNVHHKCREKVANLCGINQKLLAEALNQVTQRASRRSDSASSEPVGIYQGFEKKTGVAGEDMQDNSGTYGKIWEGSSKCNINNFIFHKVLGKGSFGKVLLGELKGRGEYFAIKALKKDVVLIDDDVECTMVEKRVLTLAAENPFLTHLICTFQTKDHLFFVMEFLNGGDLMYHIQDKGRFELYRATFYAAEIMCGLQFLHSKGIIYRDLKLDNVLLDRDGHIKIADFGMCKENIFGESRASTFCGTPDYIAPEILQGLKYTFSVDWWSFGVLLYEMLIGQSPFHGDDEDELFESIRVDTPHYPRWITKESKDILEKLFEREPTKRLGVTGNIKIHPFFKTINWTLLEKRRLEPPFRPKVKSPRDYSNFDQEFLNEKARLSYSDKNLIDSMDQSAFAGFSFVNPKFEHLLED", "conditions": "PKCδ(h), read-out: Inhibition rate", "in_short": "as §1"}, "[4]": {"biological_target": "T4, 380 human recombinant protein kinases (Homo sapiens, UniProt Q99986)", "T4 construct": "purchased Eurofins (Celle Lévescault)", "T4 sequence (Q99986 1-396)": "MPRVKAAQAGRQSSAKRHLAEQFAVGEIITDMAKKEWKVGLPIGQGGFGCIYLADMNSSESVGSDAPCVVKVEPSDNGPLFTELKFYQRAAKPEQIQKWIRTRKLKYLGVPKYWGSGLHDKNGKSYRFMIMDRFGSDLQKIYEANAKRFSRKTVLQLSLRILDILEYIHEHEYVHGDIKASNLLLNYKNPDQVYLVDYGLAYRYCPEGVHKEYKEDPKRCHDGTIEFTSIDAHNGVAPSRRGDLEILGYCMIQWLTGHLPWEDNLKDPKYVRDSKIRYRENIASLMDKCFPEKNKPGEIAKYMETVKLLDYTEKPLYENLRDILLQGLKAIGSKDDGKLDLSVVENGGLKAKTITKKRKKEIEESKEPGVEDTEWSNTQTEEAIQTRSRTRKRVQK", "conditions": "VRK1(h), read-out: Inhibition rate (%)", "in_short": "as §1"}, "[5]": {"biological_target": "T5, 380 human recombinant protein kinases (Homo sapiens, UniProt Q9HBH9)", "T5 construct": "purchased Eurofins (Celle Lévescault)", "T5 sequence (Q9HBH9 whole entry)": "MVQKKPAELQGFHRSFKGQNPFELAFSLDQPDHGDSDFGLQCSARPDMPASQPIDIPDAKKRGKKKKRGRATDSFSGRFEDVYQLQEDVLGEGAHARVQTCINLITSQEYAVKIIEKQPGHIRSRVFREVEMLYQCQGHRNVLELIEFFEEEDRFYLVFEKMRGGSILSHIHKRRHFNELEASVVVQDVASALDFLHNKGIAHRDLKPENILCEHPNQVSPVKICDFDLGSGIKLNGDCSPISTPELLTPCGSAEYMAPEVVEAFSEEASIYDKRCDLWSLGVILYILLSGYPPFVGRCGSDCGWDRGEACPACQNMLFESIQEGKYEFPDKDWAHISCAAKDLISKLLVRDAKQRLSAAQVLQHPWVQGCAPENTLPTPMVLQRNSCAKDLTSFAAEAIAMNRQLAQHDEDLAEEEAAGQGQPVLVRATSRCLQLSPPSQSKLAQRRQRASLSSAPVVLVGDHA", "conditions": "Mnk2(h), read-out: Inhibition rate", "in_short": "as §1"}, "[6]": {"biological_target": "T6, 380 human recombinant protein kinases (Homo sapiens, UniProt P07949)", "T6 construct": "purchased Eurofins (Celle Lévescault)", "T6 sequence (P07949 29-1114)": "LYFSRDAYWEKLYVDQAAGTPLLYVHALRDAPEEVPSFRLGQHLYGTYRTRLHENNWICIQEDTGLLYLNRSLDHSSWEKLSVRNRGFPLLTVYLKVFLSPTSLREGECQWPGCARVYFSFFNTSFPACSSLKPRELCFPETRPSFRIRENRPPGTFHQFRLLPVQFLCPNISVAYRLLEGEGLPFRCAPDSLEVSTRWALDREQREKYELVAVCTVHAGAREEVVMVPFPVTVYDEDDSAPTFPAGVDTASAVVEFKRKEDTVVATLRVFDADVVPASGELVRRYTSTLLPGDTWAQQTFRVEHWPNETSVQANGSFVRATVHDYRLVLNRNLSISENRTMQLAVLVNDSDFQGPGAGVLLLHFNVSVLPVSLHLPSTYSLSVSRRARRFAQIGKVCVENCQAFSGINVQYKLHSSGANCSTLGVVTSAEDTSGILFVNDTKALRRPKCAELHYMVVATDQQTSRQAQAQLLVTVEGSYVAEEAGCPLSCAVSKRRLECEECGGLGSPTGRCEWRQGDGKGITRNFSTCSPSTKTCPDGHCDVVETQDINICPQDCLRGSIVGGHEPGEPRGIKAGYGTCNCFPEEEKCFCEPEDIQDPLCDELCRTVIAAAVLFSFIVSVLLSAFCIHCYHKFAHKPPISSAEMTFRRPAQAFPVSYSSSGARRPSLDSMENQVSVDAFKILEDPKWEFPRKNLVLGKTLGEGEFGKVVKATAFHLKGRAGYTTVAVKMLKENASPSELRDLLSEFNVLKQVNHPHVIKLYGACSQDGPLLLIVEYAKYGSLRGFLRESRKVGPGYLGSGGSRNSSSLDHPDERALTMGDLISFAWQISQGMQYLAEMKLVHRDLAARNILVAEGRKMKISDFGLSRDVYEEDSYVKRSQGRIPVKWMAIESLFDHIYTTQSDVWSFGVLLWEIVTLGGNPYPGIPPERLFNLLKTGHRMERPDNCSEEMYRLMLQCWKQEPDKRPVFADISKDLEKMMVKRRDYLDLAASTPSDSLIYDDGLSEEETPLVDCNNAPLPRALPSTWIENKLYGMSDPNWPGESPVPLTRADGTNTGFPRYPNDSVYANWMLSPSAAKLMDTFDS", "conditions": "Ret(h), read-out: Inhibition rate", "in_short": "as §1"}, "[7]": {"biological_target": "T7, 380 human recombinant protein kinases (Homo sapiens, UniProt P29376)", "T7 construct": "purchased Eurofins (Celle Lévescault)", "T7 sequence (P29376 17-864)": "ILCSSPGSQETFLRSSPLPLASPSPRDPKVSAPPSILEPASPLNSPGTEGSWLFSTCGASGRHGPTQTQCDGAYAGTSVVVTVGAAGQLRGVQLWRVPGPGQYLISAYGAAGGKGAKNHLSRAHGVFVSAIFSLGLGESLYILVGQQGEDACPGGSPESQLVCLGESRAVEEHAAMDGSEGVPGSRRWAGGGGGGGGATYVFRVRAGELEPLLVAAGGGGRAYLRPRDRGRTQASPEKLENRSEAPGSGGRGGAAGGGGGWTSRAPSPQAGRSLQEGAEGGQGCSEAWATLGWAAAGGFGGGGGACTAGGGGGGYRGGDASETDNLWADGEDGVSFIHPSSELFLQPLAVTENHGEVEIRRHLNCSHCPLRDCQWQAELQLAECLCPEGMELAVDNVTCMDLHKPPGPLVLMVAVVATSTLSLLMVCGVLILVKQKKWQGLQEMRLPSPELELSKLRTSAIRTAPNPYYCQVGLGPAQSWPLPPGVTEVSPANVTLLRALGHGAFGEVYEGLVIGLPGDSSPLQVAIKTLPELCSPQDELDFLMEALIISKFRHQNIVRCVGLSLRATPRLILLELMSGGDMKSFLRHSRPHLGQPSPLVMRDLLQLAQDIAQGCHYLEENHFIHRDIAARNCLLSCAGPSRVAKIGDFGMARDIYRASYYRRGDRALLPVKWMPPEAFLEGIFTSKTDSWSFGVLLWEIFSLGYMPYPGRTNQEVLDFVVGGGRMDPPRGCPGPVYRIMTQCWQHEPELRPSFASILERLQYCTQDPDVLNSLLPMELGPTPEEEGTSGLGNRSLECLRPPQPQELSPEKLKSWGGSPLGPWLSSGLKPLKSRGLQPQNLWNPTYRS", "conditions": "LTK(h), read-out: Inhibition rate", "in_short": "as §1"}, "[8]": {"biological_target": "T8, 380 human recombinant protein kinases (Homo sapiens, UniProt P17252)", "T8 construct": "purchased Eurofins (Celle Lévescault)", "conditions": "PKCα(h), read-out: Inhibition rate", "in_short": "as §1"}}, "data": [{"compound": "C=CC(=O)Nc1cc(-c2cc(-c3cc4c([nH]3)CCNC4=O)ccn2)ccc1OC(F)(F)F", "note": "[compound 11]", "values": [{"measurement": "inhibition at 0.01 µM", "setting": "[1]; 10 nM", "value": 0, "unit": "%"}, {"measurement": "inhibition at 0.1 µM", "setting": "[1]; 100 nM", "value": 5, "unit": "%"}, {"measurement": "inhibition at 1 µM", "setting": "[1]; 1000 nM", "value": -2, "unit": "%"}, {"measurement": "inhibition at 0.01 µM", "setting": "[2]; 10 nM", "value": -9, "unit": "%"}, {"measurement": "inhibition at 0.1 µM", "setting": "[2]; 100 nM", "value": -4, "unit": "%"}, {"measurement": "inhibition at 1 µM", "setting": "[2]; 1000 nM", "value": -10, "unit": "%"}, {"measurement": "inhibition at 0.01 µM", "setting": "[3]; 10 nM", "value": 1, "unit": "%"}, {"measurement": "inhibition at 0.1 µM", "setting": "[3]; 100 nM", "value": 14, "unit": "%"}, {"measurement": "inhibition at 1 µM", "setting": "[3]; 1000 nM", "value": 9, "unit": "%"}, {"measurement": "inhibition at 0.01 µM", "setting": "[4]; 10 nM", "value": 1, "unit": "%"}, {"measurement": "inhibition at 0.1 µM", "setting": "[4]; 100 nM", "value": 1, "unit": "%"}, {"measurement": "inhibition at 1 µM", "setting": "[4]; 1000 nM", "value": 5, "unit": "%"}, {"measurement": "inhibition at 0.01 µM", "setting": "[5]; 10 nM", "value": 4, "unit": "%"}, {"measurement": "inhibition at 0.1 µM", "setting": "[5]; 100 nM", "value": 13, "unit": "%"}, {"measurement": "inhibition at 1 µM", "setting": "[5]; 1000 nM", "value": 61, "unit": "%"}, {"measurement": "inhibition at 0.01 µM", "setting": "[6]; 10 nM", "value": 12, "unit": "%"}, {"measurement": "inhibition at 0.1 µM", "setting": "[6]; 100 nM", "value": 2, "unit": "%"}, {"measurement": "inhibition at 1 µM", "setting": "[6]; 1000 nM", "value": 1, "unit": "%"}, {"measurement": "inhibition at 0.01 µM", "setting": "[7]; 10 nM", "value": -6, "unit": "%"}, {"measurement": "inhibition at 0.1 µM", "setting": "[7]; 100 nM", "value": 2, "unit": "%"}, {"measurement": "inhibition at 1 µM", "setting": "[7]; 1000 nM", "value": 6, "unit": "%"}, {"measurement": "inhibition at 0.01 µM", "setting": "[8]; 10 nM", "value": 5, "unit": "%"}, {"measurement": "inhibition at 0.1 µM", "setting": "[8]; 100 nM", "value": 14, "unit": "%"}, {"measurement": "inhibition at 1 µM", "setting": "[8]; 1000 nM", "value": 6, "unit": "%"}]}]}
